Literature values in patent US9364476B2, “Methods of treating a Bruton's Tyrosine Kinase disease or disorder” (Celgene Avilomics Research, Inc., priority 2011, dated 2016).

Experiments:
Btk = Btk (Homo sapiens, UniProt Q06187); details: enzymatic and cellular assays; cited from earlier work
B-cell = details: cited from earlier work
[1] = biological target: Spleen tyrosine kinase (Syk) (Homo sapiens, UniProt P43405); details: DLBCL, CLL, and mantle cell lymphoma; cited from earlier work

Sequence of Btk (Q06187 whole entry, species assumed): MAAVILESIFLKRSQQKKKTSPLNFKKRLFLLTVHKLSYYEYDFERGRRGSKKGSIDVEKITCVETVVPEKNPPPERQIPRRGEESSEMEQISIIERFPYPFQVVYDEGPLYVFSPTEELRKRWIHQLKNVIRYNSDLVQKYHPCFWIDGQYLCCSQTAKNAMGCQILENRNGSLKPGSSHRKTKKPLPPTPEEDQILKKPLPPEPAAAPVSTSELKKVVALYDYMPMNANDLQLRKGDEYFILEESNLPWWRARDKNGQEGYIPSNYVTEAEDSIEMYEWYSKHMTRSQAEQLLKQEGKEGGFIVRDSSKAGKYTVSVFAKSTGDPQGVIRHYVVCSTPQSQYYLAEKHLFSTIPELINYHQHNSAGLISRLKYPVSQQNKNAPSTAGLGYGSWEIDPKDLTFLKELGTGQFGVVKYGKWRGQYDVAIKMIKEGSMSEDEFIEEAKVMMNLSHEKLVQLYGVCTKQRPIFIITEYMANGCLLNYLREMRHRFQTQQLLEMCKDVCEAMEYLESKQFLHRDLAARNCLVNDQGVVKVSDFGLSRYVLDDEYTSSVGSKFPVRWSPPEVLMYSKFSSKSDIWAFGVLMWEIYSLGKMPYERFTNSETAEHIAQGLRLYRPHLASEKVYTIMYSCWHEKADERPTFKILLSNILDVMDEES

| Compound | mode of BTK inhibition (Btk) | effect on B-cell proliferation and activation (B-cell) | clinical response [1] |
| --- | --- | --- | --- |
| C=CC(=O)Nc1cccc(Nc2nc(Nc3ccc(OCCOC)cc3)ncc2F)c1 [Compound 1, N-(3-(5-fluoro-2-(4-(2-methoxyethoxy)phenylamino)pyrimidin-4-ylamino)phenyl)acrylamide] | covalent, irreversible inhibition of BTK | inhibit B-cell proliferation and activation | – |
| COc1cc(Nc2ncc(F)c(Nc3ccc4c(n3)N(COP(=O)(O)O)C(=O)C(C)(C)O4)n2)cc(OC)c1OC [fostamatinib disodium] | – | – | clinical responses |
